Data on 17 compounds can be found in US9580432B2, “Fused pyrimidine compound or salt thereof” (TAIHO PHARMACEUTICAL CO., LTD., priority 2013, dated 2017).

Where only a bound is given, the exact number is not on record here.

For assay [1], the target named is purified recombinant human BTK protein (Homo sapiens (Human), UniProt Q06187). The experiment in a line: Measurement of BTK inhibitory activity (in vitro). The class given is biochemical. The settings on record: FL-PEPTIDE 2 substrate 1 μM, ATP 45 μM, 40 minutes at 25° C. The method, boiled down: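 Recombinant human BTK with FL-PEPTIDE 2 substrate (1 μM), 45 μM ATP and 10 mM MgCl2 in 20 mM HEPES pH 7.5, 2 mM DTT, 0.01% Triton X-100, 5% DMSO; 40 min at 25° C. Reaction stopped with 30 mM EDTA. Phosphorylated and unphosphorylated peptide separated and detected by microchannel capillary electrophoresis.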
Sequence of purified recombinant human BTK protein (Q06187 whole entry): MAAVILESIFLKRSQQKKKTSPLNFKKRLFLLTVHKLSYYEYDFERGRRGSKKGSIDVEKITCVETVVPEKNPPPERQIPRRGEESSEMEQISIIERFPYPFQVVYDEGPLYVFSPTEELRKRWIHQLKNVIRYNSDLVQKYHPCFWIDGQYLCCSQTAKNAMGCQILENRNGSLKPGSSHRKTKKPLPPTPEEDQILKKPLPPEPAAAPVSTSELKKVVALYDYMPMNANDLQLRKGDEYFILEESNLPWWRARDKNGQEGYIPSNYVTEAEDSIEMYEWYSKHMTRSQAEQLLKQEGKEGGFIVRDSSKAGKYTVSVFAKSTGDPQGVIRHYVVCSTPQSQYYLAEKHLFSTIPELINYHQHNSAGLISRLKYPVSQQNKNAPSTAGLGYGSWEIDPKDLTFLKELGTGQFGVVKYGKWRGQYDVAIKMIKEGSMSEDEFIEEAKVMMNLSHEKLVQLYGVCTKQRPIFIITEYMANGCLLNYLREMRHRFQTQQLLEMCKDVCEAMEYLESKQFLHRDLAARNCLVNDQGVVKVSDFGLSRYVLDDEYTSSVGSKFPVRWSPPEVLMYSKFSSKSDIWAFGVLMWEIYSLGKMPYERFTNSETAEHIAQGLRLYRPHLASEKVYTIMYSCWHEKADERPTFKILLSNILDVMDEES

The test system of assay [2] is purified recombinant human EGFR protein / BTK. The assay can be described thus: BTK inhibition selectivity compared with EGFR kinase inhibitory activity (in vitro). The class given is biochemical. The settings on record: EGFR assay ATP 1.5 μM. The method, then:
1) Measurement of BTK Inhibitory Activity
2) Measurement of EGFR Inhibitory Activity
Therefore, a biotinated peptide (biotin-[…]) was produced by referring to the amino acid sequence of the peptide. The purified recombinant human EGFR protein used in the test was purchased from Carna Biosciences, Inc.
With regard to the measurement of the inhibitory activity of the compounds, firstly, the compounds of the present invention were diluted stepwise with dimethyl sulfoxide (DMSO). […] The reaction was terminated by adding EDTA thereto in order to obtain a final concentration of 24 mM. Subsequently, a detection liquid containing Eu-labeled anti-phosphorylated tyrosine antibody PT66 (PerkinElmer, Inc.) and […] APC-SA (PerkinElmer, Inc.) was added thereto, and the system was left to stand for 2 hours or longer at room temperature.
3) BTK Inhibition Selectivity

A further assay has as its system A431 cells / TMD8 cells. The experiment in a line: Proliferation inhibitory activity against cell lines expressing BTK and EGFR (in vitro), comparison of selectivity. The settings on record: ratio from GI50 (nM), 3 days culture, CELLTITER GLO. It is filed as cell-based, human. The method, boiled down: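 BTK-expressing TMD8 DLBCL cells (RPMI1640/10% FBS) and EGFR-overexpressing A431 epidermoid carcinoma cells (DMEM/10% FBS) cultured 1 day, then exposed to compound (0.2% DMSO final) for 3 days at 37° C. Luminescence read-out; inhibition ratio % = (C−T)/(C−C0)×100, with A431/TMD8 ratio as selectivity index.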
In general terms: In ATP-based viability assays light output follows the ATP content of the culture.

The term IC50 denotes the concentration that gives 50% inhibition. Turning to `CC(C)N(C)C/C=C/C(=O)N1CCC[C@@H](n2nc(C(=O)Nc3nc4cc(Cl)ccc4o3)c3c(N)ncnc32)C1` [Example 18, (R,E)-4-amino-N-(5-chlorobenzo[d]oxazol-2-yl)-1-(1-(4-(isopropyl(methyl)amino)but-2-enoyl)piperidin-3-yl)-1H-pyrazolo[3,4-d]pyrimidine-3-carboxamide], the IC50 in assay [1] amounted to 0.788 nM. Also, the “EGFR inhibitory activity IC50 value (nM)/BTK inhibitory activity IC50 value (nM)” value (“EGFR inhibitory activity IC50 value” below) in assay [2] was 121.3. Also, in the assay with A431 cells / TMD8 cells, the “A431 cell proliferation inhibition ratio/TMD8 cell proliferation inhibitio ratio” value is recorded as greater than 15625.0.
Take `C=CC(=O)N1CC(Cn2nc(C(=O)Nc3nc4ccccc4o3)c3c(N)ncnc32)C1` [Example 70, 1-((1-acryloylazetidin-3-yl)methyl)-4-amino-N-(benzo[d]oxazol-2-yl)-1H-pyrazolo[3,4-d]pyrimidine-3-carboxamide]: the half-inhibitory concentration (IC50) in assay [1] was determined as 3.17 nM. Moreover, the “EGFR inhibitory activity IC50 value” value in assay [2] came out at 12.2. In addition, in the assay with A431 cells / TMD8 cells, the “A431 cell proliferation inhibition ratio/TMD8 cell proliferation inhibitio ratio” value was greater than 8369.4.
For the compound `CCN(C)C/C=C/C(=O)N1CCC[C@@H](n2nc(C(=O)Nc3nc4cc(Cl)ccc4o3)c3c(N)ncnc32)C1` [Example 16, (R,E)-4-amino-N-(5-chlorobenzo[d]oxazol-2-yl)-1-(1-(4-(ethyl(methyl)amino)but-2-enoyl)piperidin-3-yl)-1H-pyrazolo[3,4-d]pyrimidine-3-carboxamide], the IC50 in assay [1] is 0.733 nM. Further, in assay [2], the “EGFR inhibitory activity IC50 value” value is recorded as 158.1. Further, the “A431 cell proliferation inhibition ratio/TMD8 cell proliferation inhibitio ratio” value in the assay on A431 cells / TMD8 cells is greater than 16313.2.
In the case of `C=CC(=O)N1CC[C@@H](n2nc(C(=O)Nc3nc4cc(C#N)ccc4o3)c3c(N)ncnc32)C1` [Example 39, (R)-1-(1-acryloylpyrrolidin-3-yl)-4-amino-N-(5-cyanobenzo[d]oxazol-2-yl)-1H-pyrazolo[3,4-d]pyrimidine-3-carboxamide], the 50% inhibitory concentration (IC50) in assay [1] amounted to 1.12 nM. In addition, the “EGFR inhibitory activity IC50 value” value in assay [2] was 37.5. Also, the “A431 cell proliferation inhibition ratio/TMD8 cell proliferation inhibitio ratio” value with A431 cells / TMD8 cells is given as greater than 3510.0.
For the compound `C=CC(=O)N1CCC[C@@H](n2nc(C(=O)Nc3nc4ncccc4o3)c3c(N)ncnc32)C1` [Example 9, (R)-1-(1-acryloylpiperidin-3-yl)-4-amino-N-(oxazolo[4,5-b]pyridin-2-yl)-1H-pyrazolo[3,4-d]pyrimidine-3-carboxamide], in assay [1], the 50% inhibitory concentration (IC50) was 1.37 nM. Moreover, in assay [2], the “EGFR inhibitory activity IC50 value” value turned out to be 28.4. The “A431 cell proliferation inhibition ratio/TMD8 cell proliferation inhibitio ratio” value with A431 cells / TMD8 cells amounted to 8196.7.
`CN(C)C/C=C/C(=O)N1CC[C@@H](n2cc(C(=O)Nc3nc4cc(Cl)ccc4o3)c3c(N)ncnc32)C1` [Example 49, (R,E)-4-amino-N-(5-chlorobenzo[d]oxazol-2-yl)-7-(1-(4-(dimethylamino)but-2-enoyl)pyrrolidin-3-yl) 7H-pyrrolo[2,3-d]pyrimidine-5-carboxamide]: the concentration for half-maximal inhibition (IC50) in assay [1] turned out to be 1.53 nM. In addition, the “EGFR inhibitory activity IC50 value” value in assay [2] was determined as 24.8. For the same compound, the “A431 cell proliferation inhibition ratio/TMD8 cell proliferation inhibitio ratio” value in the assay with A431 cells / TMD8 cells is reported as greater than 3260.5.
With `C=CC(=O)N1CCC(Cn2nc(C(=O)Nc3nc4ccccc4o3)c3c(N)ncnc32)CC1` [Example 68, 1-((1-acryloylpiperidin-4-yl)methyl)-4-amino-N-(benzo[d]oxazol-2-yl)-1H-pyrazolo[3,4-d]pyrimidine-3-carboxamide], the IC50 in assay [1] came to 13.2 nM. Besides, the “EGFR inhibitory activity IC50 value” value in assay [2] amounted to 11.4. Also, in the assay on A431 cells / TMD8 cells, the “A431 cell proliferation inhibition ratio/TMD8 cell proliferation inhibitio ratio” value is listed as greater than 4785.8.
Take `Nc1ncnc2c1c(C(=O)Nc1nc3cc(Cl)ccc3o1)nn2[C@@H]1CCCN(C(=O)/C=C/CN2CCCC2)C1` [Example 19, (R,E)-4-amino-N-(5-chlorobenzo[d]oxazol-2-yl)-1-(1-(4-(pyrrolidin-1-yl)but-2-enoyl)piperidin-3-yl)-1H-pyrazolo[3,4-d]pyrimidine-3-carboxamide]: the IC50 in assay [1] was 0.69 nM. In assay [2], the “EGFR inhibitory activity IC50 value” value amounted to 144.8. The “A431 cell proliferation inhibition ratio/TMD8 cell proliferation inhibitio ratio” value in the assay with A431 cells / TMD8 cells is greater than 17825.3.
Consider `C=CC(=O)N1CC[C@@H](n2nc(C(=O)Nc3nc4cc(F)ccc4o3)c3c(N)ncnc32)C1` [Example 30, (R)-1-(1-acryloylpyrrolidin-3-yl)-4-amino-N-(5-fluorobenzo[d]oxazol-2-yl)-1H-pyrazolo[3,4-d]pyrimidine-3-carboxamide], for which, in assay [1], the 50% inhibitory concentration (IC50) is 0.566 nM. In addition, the “EGFR inhibitory activity IC50 value” value in assay [2] amounted to 21.3. Also, the “A431 cell proliferation inhibition ratio/TMD8 cell proliferation inhibitio ratio” value with A431 cells / TMD8 cells was 5164.3.
`CC(C)N(C)C/C=C/C(=O)N1CC[C@@H](n2cc(C(=O)Nc3nc4cc(Cl)ccc4o3)c3c(N)ncnc32)C1` [Example 52, (R,E)-4-amino-N-(5-chlorobenzo[d]oxazol-2-yl)-7-(1-(4-(isopropyl(methyl)amino)but-2-enoyl)pyrrolidin-3-yl) 7H-pyrrolo[2,3-d]pyrimidine-5-carboxamide]: the IC50 in assay [1] was found to be 1.2 nM. The “EGFR inhibitory activity IC50 value” value in assay [2] was determined as 20.6. The “A431 cell proliferation inhibition ratio/TMD8 cell proliferation inhibitio ratio” value in the assay on A431 cells / TMD8 cells was greater than 3617.9.
On the same counts, the results for `C=CC(=O)N[C@H]1CC[C@@H](n2nc(C(=O)Nc3nc4ccccc4o3)c3c(N)ncnc32)CC1` [Example 71, 1-((1S,4S)-4-acrylamidocyclohexyl)-4-amino-N-(benzo[d]oxazol-2-yl)-1H-pyrazolo[3,4-d]pyrimidine-3-carboxamide] are 5.89 nM, 42.0 and greater than 7657.0.
For `CCN(C)C/C=C/C(=O)N1CC[C@@H](n2cc(C(=O)Nc3nc4cc(Cl)ccc4o3)c3c(N)ncnc32)C1` [Example 50, (R,E)-4-amino-N-(5-chlorobenzo[d]oxazol-2-yl)-7-(1-(4-(ethyl(methyl)amino)but-2-enoyl)pyrrolidin-3-yl) 7H-pyrrolo[2,3-d]pyrimidine-5-carboxamide], the half-maximal inhibitory concentration (IC50) in assay [1] amounted to 1.41 nM. The “EGFR inhibitory activity IC50 value” value in assay [2] worked out at 22.1. Besides, the “A431 cell proliferation inhibition ratio/TMD8 cell proliferation inhibitio ratio” value with A431 cells / TMD8 cells is greater than 2767.8.
The like results for `CCN(CC)C/C=C/C(=O)N1CCC[C@@H](n2nc(C(=O)Nc3nc4cc(Cl)ccc4o3)c3c(N)ncnc32)C1` [Example 17, (R,E)-4-amino-N-(5-chlorobenzo[d]oxazol-2-yl)-1-(1-(4-(diethylamino)but-2-enoyl)piperidin-3-yl)-1H-pyrazolo[3,4-d]pyrimidine-3-carboxamide] were, in that order, 0.811 nM, 157.2 and greater than 12345.7.
For `CCN(CC)C/C=C/C(=O)N1CC[C@@H](n2cc(C(=O)Nc3nc4cc(Cl)ccc4o3)c3c(N)ncnc32)C1` [Example 51, (R,E)-4-amino-N-(5-chlorobenzo[d]oxazol-2-yl)-7-(1-(4-(diethylamino)but-2-enoyl)pyrrolidin-3-yl) 7H-pyrrolo[2,3-d]pyrimidine-5-carboxamide], the concentration for half-maximal inhibition (IC50) in assay [1] stood at 1.48 nM. In assay [2], the “EGFR inhibitory activity IC50 value” value is reported as 31.1. For the same compound, the “A431 cell proliferation inhibition ratio/TMD8 cell proliferation inhibitio ratio” value in the assay with A431 cells / TMD8 cells was greater than 2044.6.
Turning to `CN(C)C/C=C/C(=O)N1CCC[C@@H](n2nc(C(=O)Nc3nc4cc(Cl)ccc4o3)c3c(N)ncnc32)C1` [Example 15, (R,E)-4-amino-N-(5-chlorobenzo[d]oxazol-2-yl)-1-(1-(4-(dimethylamino)but-2-enoyl)piperidin-3-yl)-1H-pyrazolo[3,4-d]pyrimidine-3-carboxamide], the IC50 in assay [1] is 0.786 nM. For the same compound, in assay [2], the “EGFR inhibitory activity IC50 value” value was 145.0. Further, the “A431 cell proliferation inhibition ratio/TMD8 cell proliferation inhibitio ratio” value in the assay with A431 cells / TMD8 cells is 16442.0.
The like results for `CN(C)C/C=C/C(=O)N1CC[C@@H](n2nc(C(=O)Nc3nc4cc(C(F)(F)F)ccc4o3)c3c(N)ncnc32)C1` [Example 44, (R,E)-4-amino-N-(5-(trifluoromethyl)benzo[d]oxazol-2-yl)-1-(1-(4-(dimethylamino)but-2-enoyl)pyrrolidin-3-yl)-1H-pyrazolo[3,4-d]pyrimidine-3-carboxamide] were, in that order, 0.877 nM, 17.1 and 10905.1.
Regarding `C=CC(=O)N1CCCC(Cn2nc(C(=O)Nc3nc4ccccc4o3)c3c(N)ncnc32)C1` (stereo not drawn) [Example 67, 1-((1-acryloylpiperidin-3-yl)methyl)-4-amino-N-(benzo[d]oxazol-2-yl)-1H-pyrazolo[3,4-d]pyrimidine-3-carboxamide], the IC50 in assay [1] was 14 nM. Also, in assay [2], the “EGFR inhibitory activity IC50 value” value amounted to 18.0. In addition, the “A431 cell proliferation inhibition ratio/TMD8 cell proliferation inhibitio ratio” value with A431 cells / TMD8 cells is greater than 2168.7.
